Data reported in publication PMC4201456, “Cytoxicity and Apoptotic Mechanism of Ruthenium(II) Amino Acid Complexes in Sarcoma-180 Tumor Cells” (PLoS ONE, 2014).

Columns and labels:
Format in all cases: cell-based, murine
[1] = system: S180 tumor cells; experiment: Annexin V-FITC/PI double staining, flow cytometry
Procedure: The cell death of S180 tumor cells was examined using the Annexin V-FITC Apoptosis Detection Kit (BD Biosciences) according to the manufacturer's instructions. S180 cells were treated with complex 2 (40 µM and 60 µM) for 24 h and 48 h. Briefly, 5.0×10^5 cells were harvested and washed with PBS. The cells were re-suspended in 400 µL of binding buffer. Next, 5 µL of Annexin V-FITC and 1 µL of PI were added. Flow cytometric analysis was performed immediately after supravital staining. Data acquisition and analysis were performed on a flow cytometer (FACSCalibur, BD Biosciences) using Cell Quest software. The criteria for positivity in cells in early stages of apoptosis were Annexin V-positive and PI-negative, whereas the criteria for cells in the late stages of apoptosis were both Annexin V-positive and PI-positive.

[2] = system: caspase-8; experiment: Caspase activity colorimetric assay (IETD-pNA); settings: S180 cells, 40 µM, 24 h; control 100%
Procedure: Direct measurement of the activity of caspases 3, 8, and 9 were performed using the ApoTarget Caspase 3, 8, and 9 Protease Assay (Invitrogen) according to the manufacturer's recommendations. After treatment with complex 2 (40 µM and 60 µM) for 24 h, the cells were lysed with chilled cell lysis buffer. The protein concentration was then measured using the BSA Protein Assay Kit (BioRad). An aliquot of the protein extract (75 µg) was mixed with 50 µL of 2X reaction buffer supplemented with 10 mM DTT and the substrates of DEVD-pNA (caspase-3), IETD-pNA (caspase-8), or LEHD-pNA (caspase-9). The mixtures were then incubated for 2 h at 37°C. Subsequently, the formation of p-nitroanilide in the samples was measured using an ELISA microplate reader at 405 nm. The increases in the activities of caspase-3, caspase-8, and caspase-9 were determined by comparing the results with the control.

[3] = system: S180 cells; experiment: Cell cycle analysis by PI flow cytometry
Procedure: The S180 cells were treated with complex 2 (40 µM and 60 µM) for 24 h and 48 h. Briefly, 5.0×10^5 cells were harvested by centrifugation, washed with phosphate-buffered saline (PBS), fixed with 70% (v/v) cold ethanol and stored overnight at −20°C. The fixed cells were washed with PBS and incubated with propidium iodide (PI; Sigma-Aldrich) containing 0.05% RNase. The samples were incubated at 4°C in the dark and analyzed by flow cytometry (FACS Calibur, BD Biosciences). The percentage of cells in the G0/G1, S, G2/M and sub-G1 phases was analyzed using ModFit software.

[4] = system: Bak protein; experiment: Western blot analysis of Bak protein; settings: S180 cells, 60 µM, 24 h; normalized to β-actin; control 5.08
Procedure: The S180 cells were treated with 40 µM and 60 µM complex 2 for 24 h. Untreated cells maintained in media only were used as the control. After treatment, the cells were washed with PBS and lysed with lysis buffer (Invitrogen). The samples were stored at −20°C until further analysis. The protein concentrations of the resulting lysates were determined using the Bradford assay. A total of 70 µg of protein extract was mixed with Laemmli loading buffer and subjected to 12% SDS-PAGE at 100 V for 2 h, followed by electroblotting to nitrocellulose membranes (0.45 µm) (Bio-Rad Laboratories, Inc.) at 400 mA for 1.5 h. […] The membranes were washed in TBS-T, incubated with an HRP-conjugated IgG secondary antibody (Santa Cruz Biotechnology Inc., 1∶1000 dilution) for 1 h, and washed with TBS-T. The immunoreactive bands were detected using an ECL western blotting substrate (Super Signal West Pico Substrate, Thermo Scientific), and the ECL signals were captured using a CCD camera (ImageQuant LAS 4000 mini; GE Healthcare). The optical density of the target protein bands was measured using IMAGE J software downloaded from the NIH website (http://rsb.info.nih.gov.ij/) to compare the protein levels. […]

F[P-](F)(F)(F)(F)F.NCC(=O)[O-].[Ru+2].c1ccc(-c2ccccn2)nc1.c1ccc(P(CCCCP(c2ccccc2)c2ccccc2)c2ccccc2)cc1 [Complex 2, [Ru(gly)(bipy)(dppb)]PF6]
cells in early apoptosis (Annexin V+ and PI-) ([1]; 40 µM, 24 h): 19.76% | cells in late apoptosis (Annexin V+ and PI+) ([1]; 40 µM, 24 h): 22.76% | cells in early apoptosis (Annexin V+ and PI-) ([1]; 40 µM, 48 h): 42.59% | cells in late apoptosis (Annexin V+ and PI+) ([1]; 40 µM, 48 h): 25.16% | cells in early apoptosis (Annexin V+ and PI-) ([1]; 60 µM, 24 h): 22.48% | cells in late apoptosis (Annexin V+ and PI+) ([1]; 60 µM, 24 h): 31.67% | cells in early apoptosis (Annexin V+ and PI-) ([1]; 60 µM, 48 h): 47.48% | cells in late apoptosis (Annexin V+ and PI+) ([1]; 60 µM, 48 h): 30.24% | activity of caspase-8 [2]: 127.22% | fraction of G0/G1 cells ([3]; 40 µM, 24 h, control 23.6%): 61.07% | fraction of G0/G1 cells ([3]; 40 µM, 48 h, control 41.55%): 59.94% | fraction of G0/G1 cells ([3]; 60 µM, 24 h, control 23.6%): 56.09% | fraction of G0/G1 cells ([3]; 60 µM, 48 h, control 41.55%): 59.86% | expression level of the Bak protein [4]: 9.40 fold
